The values that follow come from patent US20060088533A1, “Methods of treating inflammatory bowel disease” (priority 2004, published 2006).

One assay deals with T1, EGFR (Homo sapiens, UniProt P00533).
T1 construct: endogenous in cells; host or cells: NCM460 (nontransformed human colonic epithelial cells); HT29 (colonic adenocarcinoma cells)
In words: Western blot of EGFR phosphorylation in colonocytes exposed to C. difficile toxin. The class given is cell-based. The conditions noted are these: for TxB's activation of EGFR: colonocytes preincubated with BAPTA 20uM or GF109203X 1uM before TxB addition. A general note: Immunoblotting shows a protein as a band on a membrane.

A further assay has as its system ERK1/2. In words: Western blot of ERK1/2 phosphorylation in colonocytes exposed to C. difficile toxin or LPA. The class given is cell-based, human. The conditions noted are these: for TxB's activation of ERK: colonocytes preincubated with BAPTA 20uM or GF109203X 1uM before TxB addition. As for the experimental part: NCM460 or HT29 cells were seeded in 12 well plates and grown to 70%-100% confluency. Cells were serum starved overnight prior to experiments. TxB or TxA were added in serum free medium at the indicated concentrations for varying lengths of time. Cells were then washed three times with ice cold phosphate buffered saline (PBS) and lysed in 1×SDS sample buffer (Cell Signaling Technology, Beverly, Mass.). Equal amounts of cell lysates were loaded onto 10% SDS-PAGE gels and transferred to nitrocellulose membranes (Bio-Rad Laboratories, Hercules, Calif.). Blots were probed with each primary antibody overnight at 4° C. and then with species-specific secondary antibodies coupled with horseradish peroxidase for 1 hour at room temperature. Peroxidase activity was detected by SuperSignal Chemiluminescent Substrate (Pierce, Rockford, Ill.). Signals were analyzed and quantified as described (Na, X. et al., EMBO J., 22:4249-4259 (2003)) and results were expressed as mean ±SD.

Another assay deals with TGF-α. In words: TGF-α secretion ELISA. The class given is cell-based, human. The conditions noted are these: NCM460 cells; GM6001 25 μM 30 minutes prior to TxB for 1 or 3 hours; versus DMSO. Here is the method: TGF-α secretion from colonocyte cultures was measured by enzyme-linked immunosorbent assay. Briefly, 96-well Nunc-immuno plates (Fisher Scientific) were coated with 0.4 ug/ml of TGF-α antibody diluted in PBS overnight at room temperature. Wells were blocked with PBS containing 1% BSA for 1 hour after washing 3 times with PBST (PBS with 0.1% Twin-20). Fifty μl of conditioned media or serial dilutions of TGF-α in PBS containing 1% BSA were then added to each well. After 2 hours, wells were washed and incubated with 0.3 μg/ml biotin-conjugated anti-TGF-α antibody for 1 hour. Streptavidin-horseradish peroxidase (1:1500) from Amersham Bioscience (Amersham, UK) was added to the wells. Peroxidase activity was measured by TMB Peroxidase Substrate Reagents (KPL Inc, Gaithersburg, Md.).

In another assay the test system is Rho. In words: C3 exoenzyme-catalyzed ADP-ribosylation assay (TxB-induced Rho glucosylation). The class given is cell-based, human. The conditions noted are these: NCM460 cells; EGFR antibody 20 μg/ml or AG1478 0.5 μM 30 minutes, then TxB 20 nM 1 hour.
The test system of assay [1] is IL-8. The settings on record: cited from earlier work.
Another assay relates to IL-8 promoter. In words: IL-8 luciferase promoter assay. The class given is cell-based, human. The settings on record: NCM460 cells; inhibitor 30 minutes, then TxB 20 nM 16 hours; versus DMSO. Here is the method: A 1521-bp fragment (nucleotides −1481 to +40) of the promoter region of the human IL-8 gene was used to monitor transcription of IL-8 gene as previously described (Keates, S. et al., J. Biol. Chem., 276:48127-48134 (2001)). Cells were grown on 24-well plates and transiently transfected with the IL-8 promoter luciferase construct and a control luciferase construct pRL-TK (Promega Corp., Madison, Wis.) using Superfect (Qiagen Inc., Chatsworth, Calif.). Transfected cells were serum starved overnight and then exposed to TxB and/or pharmacological inhibitors at the indicated times. Cells were lysed, and firefly and renilla luciferase activities in cell extracts were measured using Dual-Luciferase Reporter Assay System (Promega Corp., Madison, Wis.). The relative luciferase activity was calculated by normalizing IL-8 promoter-driven firefly luciferase activity to control Renilla luciferase activity. Data from all experiments are represented as the relative luciferase activity (mean ±SD) from at least three independent sets of experiments, each with triplicate measurements.

Assay [2] concerns IL-8. The conditions noted are these: cited from earlier work. This is another data set of the same source.
The next assay relates to NCM460 cells. In words: Cell rounding assay. The settings on record: EGFR antibody 20 μg/ml or AG1478 0.5 μM 30 minutes, then TxB 20 nM 1 hour. The class given is cell-based, human. As for the experimental part: NCM460 cells were seeded on glass cover slides overnight. […] Cells were then fixed with formaldehyde for 10 minutes and rinsed three times in PBS. Percentage of cell rounding was quantitated by phase-contrast microscopy.

T1 sequence (P00533 25-1210): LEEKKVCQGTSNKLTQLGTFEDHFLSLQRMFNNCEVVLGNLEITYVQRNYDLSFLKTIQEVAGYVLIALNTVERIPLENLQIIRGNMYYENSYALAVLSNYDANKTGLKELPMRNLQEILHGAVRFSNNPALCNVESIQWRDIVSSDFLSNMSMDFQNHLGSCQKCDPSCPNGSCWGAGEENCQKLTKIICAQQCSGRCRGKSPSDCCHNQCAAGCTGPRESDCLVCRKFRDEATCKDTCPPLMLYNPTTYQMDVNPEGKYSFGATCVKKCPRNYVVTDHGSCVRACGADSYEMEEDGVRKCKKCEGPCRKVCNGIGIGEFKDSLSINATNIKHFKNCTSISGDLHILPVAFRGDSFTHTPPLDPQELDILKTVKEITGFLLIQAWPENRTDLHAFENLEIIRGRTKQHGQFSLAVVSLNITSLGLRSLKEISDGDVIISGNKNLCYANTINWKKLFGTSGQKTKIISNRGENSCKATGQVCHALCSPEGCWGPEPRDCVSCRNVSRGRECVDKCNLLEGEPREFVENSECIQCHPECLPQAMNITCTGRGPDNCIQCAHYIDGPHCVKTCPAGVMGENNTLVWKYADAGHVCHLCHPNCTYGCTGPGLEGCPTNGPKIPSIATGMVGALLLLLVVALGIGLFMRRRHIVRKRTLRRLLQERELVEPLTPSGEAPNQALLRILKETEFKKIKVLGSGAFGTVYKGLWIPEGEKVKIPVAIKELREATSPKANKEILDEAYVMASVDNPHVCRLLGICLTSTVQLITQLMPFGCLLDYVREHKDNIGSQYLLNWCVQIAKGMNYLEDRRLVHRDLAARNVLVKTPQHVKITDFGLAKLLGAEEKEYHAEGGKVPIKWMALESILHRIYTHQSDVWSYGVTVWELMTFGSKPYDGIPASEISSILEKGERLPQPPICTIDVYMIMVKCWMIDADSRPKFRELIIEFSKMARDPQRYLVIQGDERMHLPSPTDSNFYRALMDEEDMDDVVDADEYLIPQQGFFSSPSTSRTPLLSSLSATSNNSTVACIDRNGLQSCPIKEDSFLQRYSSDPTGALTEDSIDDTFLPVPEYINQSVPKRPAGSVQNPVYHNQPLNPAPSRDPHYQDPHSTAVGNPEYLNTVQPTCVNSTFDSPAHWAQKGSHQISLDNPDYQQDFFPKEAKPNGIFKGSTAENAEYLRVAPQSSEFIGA

With `CNC(=O)[C@H](Cc1c[nH]c2ccccc12)NC(=O)[C@@H](CC(=O)NO)CC(C)C` [GM6001], at EGFR (NCM460 cells, BB94 or GM6001 25 μM 30 minutes prior to TxB 20 nM, versus DMSO at 60 minutes), the “Activation of the EGFR induced by TxB” value is given as “significantly inhibited”. Besides, in the assay with ERK1/2 (NCM460 cells, BB94 3 mg/ml or GM6001 25 μM 30 minutes prior to TxB 20 nM, versus DMSO at 60 minutes), the “Activation of ERK1/2 induced by TxB” value was “significantly inhibited”. For the same compound, the “TxB-induced TGF-α secretion” value with TGF-α is given as “significantly inhibited”.

As for `CN(C)CCCn1cc(C2=C(c3c[nH]c4ccccc34)C(=O)NC2=O)c2ccccc21` [GF109203X], the “TxB's activation of EGFR” value at EGFR is “decreased”. In the assay with ERK1/2, the “TxB's activation of ERK” value is listed as “decreased”.

For `COc1cc2ncnc(Nc3cccc(Cl)c3)c2cc1OC` [AG1478, tyrphostin AG1478], in the assay on Rho, the “TxB-induced Rho glucosylation” value is listed as “neither an EGFR antibody, nor a specific EGFR inhibitor, AG1478, altered”. Besides, the “IL-8 production mediated by H. pylori” value in the assay with IL-8 [1] was “significantly reduced”. Besides, the “TxB-mediated IL-8 expression” value in the assay on IL-8 promoter was “significantly inhibited”. In addition, the “Activation of ERK1/2 by TxB” value with ERK1/2 (NCM460 cells, AG1478 0.2-1.0 uM for 30 minutes, then TxB 20 nM 60 minutes) is “completely blocked”. Moreover, in the assay on IL-8 [2], the “IL-8 production mediated by neurotensin” value is given as “significantly reduced”. The TxB-induced cell rounding entry with NCM460 cells was “neither an EGFR antibody, nor a specific EGFR inhibitor, AG1478, altered”.

Take `O=C(O)CN(CC(=O)O)c1ccccc1OCCOc1ccccc1N(CC(=O)O)CC(=O)O` [BAPTA]: on EGFR, the “TxB's activation of EGFR” value is on record as “decreased”. Also, the “TxB's activation of ERK” value in the assay on ERK1/2 was “decreased”.

For the compound `COc1cccc(-c2cc(=O)c3ccccc3o2)c1N` [PD98059], in the assay on IL-8 promoter, the “TxB-mediated IL-8 expression” value is “significantly inhibited”.
